{"source": "paper PMC10215804", "about": "“Exploring Alternative Pathways to Target Bacterial Type II Topoisomerases Using NBTI Antibacterials: Beyond Halogen-Bonding Interactions” (Antibiotics, 2023)", "key": {"[1]": {"assay": "Metabolic activity assessment (cytotoxicity), CellTiter 96 Aqueous One", "format": "cell-based", "settings": "human, 72 h treatment, means of three independent measurements ± SD", "protocol": "HUVEC (ATCC® CRL-1730™) and HepG2 (ATCC® HB-8065™) cell lines were cultured in Dulbecco’s Modified Eagle Medium (DMEM; Sigma-Aldrich, St. Louis, MO, USA) supplemented with 10% heat-deactivated FBS (Gibco, Grand Island, NE, USA), 2 mM L-glutamine, 100 U/mL penicillin, 100 μg/mL streptomycin (all from Sigma-Aldrich, St. Louis, MO, USA) in a humidified chamber at 37 °C and 5% CO2. The experiments were carried out on passages 4–7 for both cell lines. The tested compounds were dissolved in DMSO and further diluted in culture medium to a desired final concentration. The cells were then seeded into 96-well plates at 5 × 10^4 cells/mL (100 μL/well) or 8 × 10^4 cells/mL (100 μL/well) for HUVEC and HepG2, respectively. The cells were then incubated for 24 h to allow attachment onto the wells. The cells were treated with 1 μM and 50 μM of each compound of interest, or the corresponding vehicle as control. […] Their metabolic activity was assessed after 72 h treatment using a CellTiter 96 Aqueous One Solution Cell Proliferation Assay (Promega, Madison, WI, USA), in accordance with the manufacturer’s instructions. The absorbance was measured at 492 nm on an automated microplate reader, Tecan Spark (Tecan Group Ltd., Männedorf, CH, Switzerland). Data are presented as the percentage of metabolic activity of control cells stimulated with vehicle, or as an IC50 value (mean ± SD) from three independent experiments, each conducted in triplicate (for screening) or duplicate (for IC50 determination). IC50 values were calculated using a non-linear regression model and with Graph Pad Prism 9 software."}, "[2]": {"test_system": "K. pneumoniae", "assay": "MIC, broth microdilution", "format": "cell-based", "settings": "Klebsiella pneumoniae", "protocol": "(§1) For the determination of minimum inhibitory concentrations (MIC), the broth microdilution method was used in 96-well plate format, according to the guidelines of the Clinical and Laboratory Standards Institute and the recommendations of the European Committee on Antimicrobial Susceptibility Testing (EUCAST). The dilutions of the bacterial suspension of the specific bacterial strain, corresponding to the 0.5 McFarland turbidity standard, were prepared with […] Mueller–Hinton broth with TES (Thermo Fisher Scientific) to obtain an end inoculum of 10^5 CFU/mL. The compounds were dissolved in DMSO and mixed with the inoculum. […] The MIC was determined as the lowest concentration of antibiotic that prevented visible bacterial growth. Tetracycline was used as a positive control on each test plate."}, "[3]": {"test_system": "A. baumannii", "assay": "MIC, broth microdilution", "format": "cell-based", "settings": "Acinetobacter baumannii", "protocol": "as §1"}, "[4]": {"test_system": "E. coli (ATCC 25922)", "assay": "MIC, broth microdilution", "format": "cell-based", "settings": "Escherichia coli", "protocol": "as §1"}, "[5]": {"test_system": "P. aeruginosa RDK 184", "assay": "MIC, broth microdilution", "format": "cell-based", "settings": "Pseudomonas aeruginosa", "protocol": "as §1"}, "[6]": {"test_system": "E. coli D22", "assay": "MIC, broth microdilution", "format": "cell-based", "settings": "Escherichia coli", "protocol": "as §1"}, "[7]": {"test_system": "E. faecalis RDK 057", "assay": "MIC, broth microdilution", "format": "cell-based", "settings": "Enterococcus faecalis", "protocol": "as §1"}, "[8]": {"test_system": "S. aureus (ATCC 29213)", "assay": "MIC, broth microdilution", "format": "cell-based", "settings": "Staphylococcus aureus", "protocol": "as §1"}, "[9]": {"test_system": "E. coli ESBL QA-11.3", "assay": "MIC, broth microdilution", "format": "cell-based", "settings": "Escherichia coli", "protocol": "as §1"}, "[10]": {"test_system": "E. coli N43 (CGSC# 5583)", "assay": "MIC, broth microdilution", "format": "cell-based", "settings": "Escherichia coli", "protocol": "as §1"}, "[11]": {"biological_target": "T1, S. aureus DNA gyrase (Staphylococcus aureus, UniProt P20831)", "T1 construct": "purchased Inspiralis (Norwich, UK)", "T1 sequence (P20831 whole entry)": "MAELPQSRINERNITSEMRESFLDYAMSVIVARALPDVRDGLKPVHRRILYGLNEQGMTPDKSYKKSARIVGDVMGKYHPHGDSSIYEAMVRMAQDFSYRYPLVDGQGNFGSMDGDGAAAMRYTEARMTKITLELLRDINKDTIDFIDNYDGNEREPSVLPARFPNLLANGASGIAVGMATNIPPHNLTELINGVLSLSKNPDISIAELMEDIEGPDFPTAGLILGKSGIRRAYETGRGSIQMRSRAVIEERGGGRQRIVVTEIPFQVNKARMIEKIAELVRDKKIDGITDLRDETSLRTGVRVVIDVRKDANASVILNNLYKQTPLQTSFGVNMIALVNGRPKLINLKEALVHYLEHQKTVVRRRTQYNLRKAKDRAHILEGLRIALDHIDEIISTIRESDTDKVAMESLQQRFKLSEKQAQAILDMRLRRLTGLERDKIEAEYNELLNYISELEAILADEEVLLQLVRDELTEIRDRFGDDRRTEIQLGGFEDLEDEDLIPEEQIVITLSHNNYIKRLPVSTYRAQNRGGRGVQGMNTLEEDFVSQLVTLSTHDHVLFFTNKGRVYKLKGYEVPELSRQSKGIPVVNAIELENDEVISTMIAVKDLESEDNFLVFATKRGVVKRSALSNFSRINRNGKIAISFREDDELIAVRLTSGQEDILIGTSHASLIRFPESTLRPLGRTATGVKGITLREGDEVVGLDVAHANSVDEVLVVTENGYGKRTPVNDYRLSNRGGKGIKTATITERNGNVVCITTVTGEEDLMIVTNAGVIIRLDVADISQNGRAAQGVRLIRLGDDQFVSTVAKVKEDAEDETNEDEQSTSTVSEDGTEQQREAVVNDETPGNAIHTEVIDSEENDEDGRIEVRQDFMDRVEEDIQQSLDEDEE", "T1 sequence (P0A0K8 whole entry partner)": "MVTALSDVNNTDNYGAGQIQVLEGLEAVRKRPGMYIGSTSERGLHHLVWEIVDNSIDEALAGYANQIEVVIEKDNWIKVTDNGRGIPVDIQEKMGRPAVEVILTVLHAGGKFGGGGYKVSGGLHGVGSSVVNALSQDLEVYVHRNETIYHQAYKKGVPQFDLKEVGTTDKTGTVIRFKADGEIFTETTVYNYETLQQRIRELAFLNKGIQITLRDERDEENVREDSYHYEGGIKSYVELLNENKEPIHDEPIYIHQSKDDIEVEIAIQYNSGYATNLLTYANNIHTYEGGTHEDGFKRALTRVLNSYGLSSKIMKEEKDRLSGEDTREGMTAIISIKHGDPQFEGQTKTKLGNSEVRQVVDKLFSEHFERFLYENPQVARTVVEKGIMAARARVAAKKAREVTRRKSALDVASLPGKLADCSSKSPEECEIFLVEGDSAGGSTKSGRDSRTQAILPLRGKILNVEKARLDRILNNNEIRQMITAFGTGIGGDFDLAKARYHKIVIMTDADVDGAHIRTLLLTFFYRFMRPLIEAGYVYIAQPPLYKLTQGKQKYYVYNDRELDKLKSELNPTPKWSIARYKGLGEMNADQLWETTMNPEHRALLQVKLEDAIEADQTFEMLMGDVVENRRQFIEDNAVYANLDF", "assay": "biochemical", "settings": "supercoiling inhibition; mean of two independent measurements ± SD", "protocol": "(§2) To determine the IC50 values of the compounds for S. aureus and E. coli, a DNA gyrase supercoiling high-throughput plate assay and a topoIV relaxation high-throughput plate assay were performed. Assay kits and black streptavidin-coated 96-well microtiter plates are available from Inspiralis (Norwich, UK). For pre-screening, an inhibitor concentration of 100 μM was used. […] A nonlinear regression-based fit of the inhibition curves was used, with the log [inhibitor] versus slope of the reaction variables (four parameters) and a symmetric equation. […] To determine IC50 values, two independent repetitions were performed and the average was calculated."}, "[12]": {"biological_target": "T2, S. aureus topoIV (Staphylococcus aureus, UniProt P0C1U9)", "T2 construct": "purchased Inspiralis (Norwich, UK)", "T2 sequence (P0C1U9 whole entry)": "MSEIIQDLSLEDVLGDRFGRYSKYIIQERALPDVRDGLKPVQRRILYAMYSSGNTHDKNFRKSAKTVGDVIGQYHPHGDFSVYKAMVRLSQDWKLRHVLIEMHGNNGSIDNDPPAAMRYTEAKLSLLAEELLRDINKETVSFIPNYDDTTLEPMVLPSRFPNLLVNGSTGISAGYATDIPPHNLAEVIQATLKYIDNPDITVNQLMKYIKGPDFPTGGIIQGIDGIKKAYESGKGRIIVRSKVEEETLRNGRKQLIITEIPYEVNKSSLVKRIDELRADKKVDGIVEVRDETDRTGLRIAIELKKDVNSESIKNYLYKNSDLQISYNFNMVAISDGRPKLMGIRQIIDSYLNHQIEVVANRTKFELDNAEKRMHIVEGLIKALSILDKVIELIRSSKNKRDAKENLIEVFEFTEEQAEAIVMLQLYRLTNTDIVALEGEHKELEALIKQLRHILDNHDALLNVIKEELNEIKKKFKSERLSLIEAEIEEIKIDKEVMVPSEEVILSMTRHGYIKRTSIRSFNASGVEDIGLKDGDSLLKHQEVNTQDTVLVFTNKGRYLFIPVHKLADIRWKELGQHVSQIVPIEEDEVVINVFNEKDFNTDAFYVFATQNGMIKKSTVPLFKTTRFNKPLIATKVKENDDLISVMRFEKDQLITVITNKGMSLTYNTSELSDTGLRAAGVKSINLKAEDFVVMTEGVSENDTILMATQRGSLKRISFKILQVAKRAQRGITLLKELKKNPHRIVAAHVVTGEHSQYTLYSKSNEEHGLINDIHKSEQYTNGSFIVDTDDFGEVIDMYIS", "T2 sequence (P0C1S7 whole entry partner)": "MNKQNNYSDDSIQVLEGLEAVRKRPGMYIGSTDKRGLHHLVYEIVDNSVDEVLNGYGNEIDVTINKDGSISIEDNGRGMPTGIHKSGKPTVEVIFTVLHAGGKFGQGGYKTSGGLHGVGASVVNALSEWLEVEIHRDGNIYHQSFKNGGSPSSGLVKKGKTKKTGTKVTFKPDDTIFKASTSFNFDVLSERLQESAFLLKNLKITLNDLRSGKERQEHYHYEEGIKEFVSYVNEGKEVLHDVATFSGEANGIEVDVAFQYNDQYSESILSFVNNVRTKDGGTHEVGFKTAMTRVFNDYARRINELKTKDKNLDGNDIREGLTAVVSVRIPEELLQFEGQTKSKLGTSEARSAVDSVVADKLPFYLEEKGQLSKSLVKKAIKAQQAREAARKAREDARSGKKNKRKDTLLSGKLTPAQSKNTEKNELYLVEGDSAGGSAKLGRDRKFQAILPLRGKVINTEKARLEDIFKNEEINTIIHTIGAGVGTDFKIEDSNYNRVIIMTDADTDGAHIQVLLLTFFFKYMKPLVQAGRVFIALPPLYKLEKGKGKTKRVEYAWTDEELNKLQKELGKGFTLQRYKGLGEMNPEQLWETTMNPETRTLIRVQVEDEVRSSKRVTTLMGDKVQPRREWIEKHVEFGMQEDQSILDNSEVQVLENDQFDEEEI", "assay": "biochemical", "settings": "relaxation inhibition; mean of two independent measurements ± SD", "protocol": "as §2"}, "[13]": {"biological_target": "T3, human topoisomerase IIα (Homo sapiens, UniProt P11388)", "T3 construct": "purchased Inspiralis (Norwich, UK)", "assay": "human topoisomerase II alpha relaxation high-throughput assay (selectivity)", "format": "biochemical", "settings": "residual activity at 100 µM compound; mean ± SD, two independent experiments; read-out: Human TopoIIα (% RA at 100 µM)", "protocol": "For selectivity determination, a human topoisomerase II alpha relaxation high-throughput assay was used. The assay kits and black streptavidin-coated 96-well microtiter plates are available from Inspiralis (Norwich, UK). Two independent measurements were performed with an inhibitory concentration of 100 µM. Raw data were calculated as the mean ± SD percentage of the residual enzyme activity."}, "[14]": {"biological_target": "T4, E. coli DNA gyrase (Escherichia coli, UniProt P0AES4)", "T4 construct": "purchased Inspiralis (Norwich, UK)", "T4 sequence (P0AES4 whole entry)": "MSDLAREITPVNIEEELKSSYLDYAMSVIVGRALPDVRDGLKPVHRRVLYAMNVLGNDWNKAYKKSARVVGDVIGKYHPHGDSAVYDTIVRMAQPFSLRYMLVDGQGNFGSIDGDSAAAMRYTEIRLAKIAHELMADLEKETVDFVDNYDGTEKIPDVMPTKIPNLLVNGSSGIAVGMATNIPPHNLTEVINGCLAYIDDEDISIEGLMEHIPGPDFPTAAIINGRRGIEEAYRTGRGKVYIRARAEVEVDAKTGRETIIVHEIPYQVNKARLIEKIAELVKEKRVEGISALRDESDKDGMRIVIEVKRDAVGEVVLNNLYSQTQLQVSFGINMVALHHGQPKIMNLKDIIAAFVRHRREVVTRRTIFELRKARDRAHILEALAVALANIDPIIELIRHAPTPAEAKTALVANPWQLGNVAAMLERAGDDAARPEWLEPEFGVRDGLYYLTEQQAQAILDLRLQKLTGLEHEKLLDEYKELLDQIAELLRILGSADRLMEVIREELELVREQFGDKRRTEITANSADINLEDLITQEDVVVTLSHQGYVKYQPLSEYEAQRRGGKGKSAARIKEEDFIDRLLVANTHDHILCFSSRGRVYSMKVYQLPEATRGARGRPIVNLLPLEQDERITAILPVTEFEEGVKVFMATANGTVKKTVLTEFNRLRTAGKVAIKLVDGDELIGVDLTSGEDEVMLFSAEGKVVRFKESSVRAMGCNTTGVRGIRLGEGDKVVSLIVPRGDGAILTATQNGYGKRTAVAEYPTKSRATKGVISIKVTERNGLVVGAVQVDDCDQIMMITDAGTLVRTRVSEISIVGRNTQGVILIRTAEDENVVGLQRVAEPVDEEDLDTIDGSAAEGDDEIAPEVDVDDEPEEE", "assay": "DNA gyrase supercoiling inhibition assay (high-throughput plate assay)", "format": "biochemical", "protocol": "as §2"}, "[15]": {"biological_target": "T5, E. coli topoIV (Escherichia coli, UniProt P0AFI2)", "T5 construct": "purchased Inspiralis (Norwich, UK)", "assay": "topoIV relaxation inhibition assay (high-throughput plate assay)", "format": "biochemical", "protocol": "as §2"}}, "note": "pIC50: −log10 of the molar value. Like-named read-outs stand apart in the source and are kept apart here.", "data": [{"molecule": "COc1ccc2nccc(OCC3CCC(NCc4ccc(N)cc4)CO3)c2n1", "note": "(stereo not shown) [Compound 11, N-(4-Aminobenzyl)-6-(((6-methoxy-1,5-naphthyridin-4-yl)oxy)methyl)tetrahydro-2H-pyran-3-amine]", "values": [{"measurement": "IC50 at 72 h", "setting": "[1]; HUVEC cells (ATCC CRL-1730)", "value": "> 50", "unit": "µM"}, {"measurement": "IC50 at 72 h", "setting": "[1]; HepG2 cells (ATCC HB-8065)", "value": "> 50", "unit": "µM"}, {"measurement": "MIC", "setting": "[2]; 20 h, read-out: MIC (μM) K. pneumoniae", "value": "> 328", "unit": "µM"}, {"measurement": "MIC", "setting": "[2]; read-out: MIC K. pneumoniae", "value": "> 128", "unit": "µg/mL"}, {"measurement": "MIC", "setting": "[3]; 20 h, read-out: MIC (μM) A. baumannii", "value": "> 328", "unit": "µM"}, {"measurement": "MIC", "setting": "[3]; read-out: MIC A. baumannii", "value": "> 128", "unit": "µg/mL"}, {"measurement": "MIC", "setting": "[4]; ATCC25922, 20 h, read-out: MIC (μM) E. coli (ATCC 25922)", "value": "> 328", "unit": "µM"}, {"measurement": "MIC", "setting": "[4]; ATCC25922, read-out: MIC E. coli (ATCC 25922)", "value": "> 128", "unit": "µg/mL"}, {"measurement": "MIC", "setting": "[5]; RDK184, 20 h, read-out: MIC (μM) P. aeruginosa RDK 184", "value": "> 328", "unit": "µM"}, {"measurement": "MIC", "setting": "[5]; RDK184, read-out: MIC P. aeruginosa RDK 184", "value": "> 128", "unit": "µg/mL"}, {"measurement": "MIC", "setting": "[6]; D22, 20 h, read-out: MIC (μM) E. coli D22", "value": "> 328", "unit": "µM"}, {"measurement": "MIC", "setting": "[6]; D22, read-out: MIC E. coli D22", "value": "> 128", "unit": "µg/mL"}, {"measurement": "MIC", "setting": "[7]; RDK057, read-out: MIC (μM) E. faecalis DRK 057", "value": "> 328", "unit": "µM"}, {"measurement": "MIC", "setting": "[7]; RDK057, read-out: MIC E. faecalis RDK 057", "value": "> 128", "unit": "µg/mL"}, {"measurement": "MIC", "setting": "[8]; ATCC29213, 20 h, read-out: MIC (μM) S. aureus (ATCC 29213)", "value": "> 328", "unit": "µM"}, {"measurement": "MIC", "setting": "[8]; ATCC29213, read-out: MIC S. aureus (ATCC 29213)", "value": "> 128", "unit": "µg/mL"}, {"measurement": "MIC", "setting": "[9]; ESBLQA11.3, 20 h, read-out: MIC (μM) E. coli ESBL QA:11.3", "value": "> 328", "unit": "µM"}, {"measurement": "MIC", "setting": "[9]; ESBLQA11.3, read-out: MIC E. coli ESBL QA-11.3", "value": "> 128", "unit": "µg/mL"}, {"measurement": "MIC", "setting": "[10]; 20 h, read-out: MIC (μM) E. coli N43", "value": "> 328", "unit": "µM"}, {"measurement": "MIC", "setting": "[10]; read-out: MIC E. coli N43 (CGSC# 5583)", "value": "> 128", "unit": "µg/mL"}, {"measurement": "pIC50", "setting": "[11]", "value": "< 4.00"}, {"measurement": "pIC50", "setting": "[12]", "value": "< 4.00"}, {"measurement": "remaining activity at 100 µM", "setting": "[13]", "value": 100, "unit": "%"}, {"measurement": "pIC50", "setting": "[14]", "value": "< 4.00"}, {"measurement": "pIC50", "setting": "[15]", "value": "< 4.00"}]}]}
